Where no end group is shown, it is not given here.
Assays:
myostatin = assay: C2C12 myoblast proliferation competition assay: wild type myostatin competed with antagonists; format: cell-based; details: antagonist 1, 5 and 10 μg/ml; myostatin 2.25 μg/ml
Procedure: […] C2C12 myoblasts were grown in Dulbecco's modified eagle medium according to the standard techniques (Thomas et al, 2000). The myoblast proliferation assay was carried out in uncoated 96-well microtitre plates. C2C12 cultures were seeded at 1000 cells/well. Following a 16-hour attachment period, test media containing either recombinant wild type myostatin or different myostatin antagonists were added and cells were incubated for a further 48 or 72 hour period. For competition assay, wild type myostatin was competed with different concentrations of myostatin antagonists prior to the addition into the media. After the incubation period, proliferation was assessed using methylene blue photometric endpoint assay as previously described (Thomas et al, 2000).

[1] = tested on: bone marrow derived macrophages; assay: Migration of bone marrow derived macrophages from mice treated in vivo; details: 6 μg/g BW SC three times a week for six weeks; ZAMS 11%, 22% or 33%; vs saline
Description: For chemotaxis analysis of macrophages bone marrow was isolated from saline treated (control) and myostatin antagonist 300 treated mice (as described in example 4, below), and plated at 5×10^6 cells/plate in DMEM 10% FBS plus 10% L929 conditioned medium (containing CSF-1) for 5 days to induce macrophage differentiation. The macrophages were then harvested and used in the assay. Three concentrations of DMEM containing Zymosan-activated mouse serum (ZAMS) was used, 33% (optimum chemo-attractant concentration), 22% and 11% (suboptimal chemo-attractant concentrations). Plain DMEM was used as negative control. On a 24-well plate, the bottom wells were filled with test or control media. Seventy-five thousand cells were added to the top wells containing polyethylene terephthalate (PET) 0.8 μm membranes. The plate was incubated for 4h at 37° C., 5% CO2. […] The membrane was then fixed, stained in Gill's hematoxylin and wet mounted on slides. Migrated cells were counted on four representative fields per membrane and the average number plotted.
An animal trial was conducted to assess the effects of myostatin antagonist 300 in improving muscle function. Sixteen month old mice were divided into two groups of ten. […] The functional improvement of sarcopenic muscle was assessed by measuring grip strength of mice at the end of trial. Grip strength was measured in Newtons.

p-FoxO1 = assay: In vitro cancer cachexia trial: p-FoxO1 Western blot in C2C12 myotubes; format: cell-based, murine; details: with myostatin 6 μg/mL; tested at 30, 60, 90 or 120 μg/mL; 24 hours
Procedure: C2C12 cells were differentiated for 72 hours in differentiation media (DMEM+2% HS). Following this period of differentiation the myotubes were tested with recombinant myostatin at 6 μg/mL or a combination of both myostatin and 300 recombinant protein at 30, 60, 90 or 120 μg/mL for further 24 hours to determine if 300 can rescue myostatin-mediated muscle wasting in vitro. Gene expression changes of intermediate signalling molecules critical in myostatin-mediated cachexia were analysed. Therefore, protein was isolated from cells and Western blot analysis was performed to measure protein expression levels for p-FoxO1, which we have shown to be a critical signalling intermediates in Myostatin-mediated cachexia (McFarlane et al 2006).

[2] = tested on: TA muscle burn in C56b1/6 mice; assay: In vivo muscle burn trial
Procedure: C56b1/6 mice at ˜12 months of age were anesthetized and a red-hot metal rod (1.5 mm wide, 7 mm long) was applied to TA muscle for 5 sec. The mice were injected subcutaneously with saline or 300 myostatin antagonists at 6 μg/g of body weight at day 1, 3, 5, 7 and 10 after injury. The mice were allowed to heal for 5, 7, 14, 21, 28, 35 and 46 days, after which they were culled and the muscle processed for histology.
Histological muscle samples were covered in OCT and frozen in isopentane cooled in liquid nitrogen. The sections were cut in a cryostat at 10 μm thickness and stained with H&E and Van Gieson. Regeneration markers such as total number of centrally formed nuclei (CFN) and number of fibres with CNF were analysed for each day following the different treatments, and the values plotted.

primary ovine myoblasts = assay: Ovine myoblast proliferation assay; format: cell-based; details: 1, 5 or 10 μg/ml; 48 hours
Procedure: Human skeletal muscle myoblasts (Cambrex, USA) or primary ovine myoblasts were grown in Dulbecco's Modified Eagle Medium containing 20% FBS, 10% Horse serum and 0.5% chicken embryo extract according to the standard techniques. The myoblast proliferation assay was carried out in uncoated 96-well microtitre plates. Cell cultures were seeded at 2000 cells/well. Following a 24-hour attachment period, test media supplemented with 5% FCS containing either buffer as a control or different myostatin antagonists (300, 310 or 320) were added at 1, 5 and 10 μg/ml and cells were incubated for a further 144 hour period (for human cells) or 48 hours (for ovine cells). After the incubation period, proliferation was assessed using methylene blue photometric endpoint assay as previously described (Thomas et al, 2000).

myostatin antagonist 300: recombinant peptide, amino acids 267-300 of bovine myostatin, with N terminal and C terminal tag (SEQ ID NO: 6) (DFGLDCDEHSTESRCCRYPLTVDFEAFGWDWIIA; cysteine pairing not given here; also: N- and C-terminal tags; listed as Homo sapiens)
rescue of the proliferation-inhibiting effects of myostatin on myoblasts (myostatin): rescued to levels similar to those observed in the positive control
migratory ability of macrophages isolated from treated mice [1]: significantly increased
concentration giving maximal rescue of p-FoxO1 expression (p-FoxO1): 90 µg/mL
H&E staining of the muscle ([2]; 21 days after burn injury): darker stained fibres, many with centrally formed nuclei
degree of fibrosis (van Gieson staining) ([2]; D21 after injury): higher degree of fibrosis in the control group
number of fibres with centrally formed nuclei (CFN) ([2]; after muscle burn, compared to saline): increased number
percentage of damage muscle area, treatment vs control ([2]; from D28 onwards, data not shown): no difference
numbers of centrally formed nuclei (CFN) ([2]; muscle burn, by D21, maintained up to day 46, vs control): significantly higher
proliferation capacity of ovine myoblasts compared to control (primary ovine myoblasts): significantly enhanced
